Molecules are shown by their SMILES. Some results are limits rather than exact numbers.

Data set [1] relates to Hepatitis C virus. Nature of the data set: Antiviral activity against HCV genotype 1b infected in human Huh7 cells assessed as inhibition of viral replication by luciferase reporter-based viral replicon assay. The data set is classed as functional, organism-based, Hepacivirus hominis. The note with it: Huh-7. A general note: A reporter such as luciferase makes a cellular process visible.

In data set [2] the test system is Hepatitis C virus. Kind of data set: Antiviral activity against HCV genotype 1b infected in Huh7.5 cells assessed as inhibition of viral replication at 72 hrs by luciferase reporter-based viral replicon assay. It counts as functional, organism-based, Hepacivirus hominis. The note with it: Huh7.5, 72 h.
Data set [3] deals with Hepatitis C virus. Kind of data set: Antiviral activity against HCV genotype 1b infected in human Huh7 cells assessed as inhibition of viral replication after 72 hrs by ELISA. The note with it: Huh-7, 72 h. It counts as functional, organism-based, Hepacivirus hominis.
Data set [4] is described as follows: Binding affinity to […] by fluorescence assay. Set-up: species or system Hepacivirus hominis.
Data set [5] deals with Hepatitis C virus. Kind of data set: Antiviral activity against HCV genotype 4a infected in human Huh7 cells assessed as inhibition of viral replication by luciferase reporter-based viral replicon assay. The data set is classed as functional, organism-based, Hepacivirus hominis. The note with it: Huh-7.
Data set [6] has as its system Hepatitis C virus. Kind of data set: Antiviral activity against HCV genotype 1a (H77) infected in human Huh7 cells assessed as inhibition of viral replication by luciferase reporter-based viral replicon assay. The note with it: genotype 1a H77, Huh-7. It counts as functional, organism-based, Hepacivirus hominis.
For data set [7], the system named is Hepatitis C virus. Nature of the data set: Antiviral activity against HCV genotype 6o infected in human Huh7 cells assessed as inhibition of viral replication by luciferase reporter-based viral replicon assay. The data set is classed as functional, organism-based, Hepacivirus hominis. The note with it: subtype 6, Huh-7.
Data set [8] relates to Hepatitis C virus. Nature of the data set: Antiviral activity against HCV genotype 2a (JFH-1) infected in human Huh7 cells assessed as inhibition of viral replication by luciferase reporter-based viral replicon assay. The data set is classed as functional, organism-based, Hepacivirus hominis. The note with it: JFH-1, Huh-7.
Data set [9] can be described thus: Binding affinity to HCV NS4B […] by quantitative PCR analysis. More on the design: species or system Hepacivirus hominis.
A short description of data set [10]: Cytotoxicity against human HuH7 cells by Cell Titer-Glo assay. It counts as cell-based, Huh-7. Background: Cellular ATP, detected with luciferase, serves as a proxy for viable cell number.
Data set [11] deals with Hepatitis C virus. Nature of the data set: Antiviral activity against HCV genotype 2b infected in human Huh7 cells assessed as inhibition of viral replication by luciferase reporter-based viral replicon assay. The data set is classed as functional, organism-based, Hepacivirus hominis. The note with it: Huh-7.
For data set [12], the system named is Hepatitis C virus. Nature of the data set: Antiviral activity against HCV genotype 6a infected in human Huh7 cells assessed as inhibition of viral replication by luciferase reporter-based viral replicon assay. The data set is classed as functional, organism-based, Hepacivirus hominis. The note with it: Huh-7.
In data set [13] the test system is Hepatitis C virus. Nature of the data set: Antiviral activity against HCV genotype 5a infected in human Huh7 cells assessed as inhibition of viral replication by luciferase reporter-based viral replicon assay. The data set is classed as functional, organism-based, Hepacivirus hominis. The note with it: Huh-7.
Data set [14] concerns Hepatitis C virus. Nature of the data set: Antiviral activity against HCV genotype 3a infected in human Huh7 cells assessed as inhibition of viral replication by luciferase reporter-based viral replicon assay. The data set is classed as functional, organism-based, Hepacivirus hominis. The note with it: Huh-7.
Data set [15] is described as follows: Cytotoxicity against human Huh7.5 cells infected with HCV genotype 1b after 24 hrs by Cell Titer-Glo assay. The data set is classed as cell-based, Huh-7.
Data set [16] has as its system Hepatitis C virus. Kind of data set: Antiviral activity against HCV genotype 1a infected in Huh7.5 cells assessed as inhibition of viral replication after 24 hrs by renilla luciferase reporter-based viral replicon assay. It counts as functional, organism-based, Hepacivirus hominis. The note with it: subtype 1a, Huh7.5, 24 h.
The subject of data set [17] is Hepatitis C virus. Nature of the data set: Antiviral activity against HCV genotype 1b infected in human Huh7.5 cells assessed as inhibition of viral replication after 24 hrs by renilla luciferase reporter-based viral replicon assay. The note with it: Huh-7, 24 h. It counts as functional, organism-based, Hepacivirus hominis.
The subject of data set [18] is Hepatitis C virus. Kind of data set: Antiviral activity against HCV genotype 2a. The data set is classed as functional, organism-based, Hepacivirus hominis.
Data set [19] has as its system Hepatitis C virus. Nature of the data set: Antiviral activity against HCV genotype 1b. It counts as functional, organism-based, Hepacivirus hominis.
The subject of data set [20] is Hepatitis C virus. Nature of the data set: Antiviral activity against HCV genotype 1b infected in Huh7 cells assessed as inhibition of viral replication after 48 hrs by luciferase reporter-based viral replicon assay. It counts as functional, organism-based, Hepacivirus hominis. The note with it: Huh-7, 48 h.
For data set [21], the system named is Hepatitis C virus. Nature of the data set: Antiviral activity against HCV infected in human HuH7 cells assessed as inhibition of viral replication after 72 hrs by ELISA-based viral replicon assay. It counts as functional, organism-based, Hepacivirus hominis. The note with it: Huh-7, 72 h.
Data set [22] in a line: Cytotoxicity against human HuH7 cells infected with HCV genotype 1b after 48 hrs by WST-1 assay. The data set is classed as cell-based, Huh-7.
Data set [23] relates to Hepatitis C virus. Kind of data set: Antiviral activity against HCV genotype 1a infected in Huh7 cells assessed as inhibition of viral replication after 48 hrs by luciferase reporter-based viral replicon assay. The data set is classed as functional, organism-based, Hepacivirus hominis. The note with it: subtype 1a, Huh-7, 48 h.
The nature of data set [24]: Cytotoxicity against human HuH7 cells infected with HCV after 72 hrs by crystal violet-based assay. The data set is classed as cell-based. The note with it: huh-7, 72 h.
Data set [25] in a line: Inhibition of HCV NS3/4A protease. Set-up: species or system Hepacivirus hominis.
For data set [26], the system named is Hepatitis C virus. Kind of data set: Antiviral activity against HCV genotype 2a infected in Huh7.5 cells assessed as inhibition of viral replication at 72 hrs by luciferase reporter-based viral replicon assay. The data set is classed as functional, organism-based, Hepacivirus hominis. The note with it: Huh7.5, 72 h.
The nature of data set [27]: Inhibition of HCV GST-tagged recombinant NS3/4A protease expressed in Escherichia coli by microfluidic affinity assay. More on the design: species or system Hepacivirus hominis.

As for `CC(C)C[C@H]1CN(C(=O)/C=C\c2ccccc2)[C@@H](CC(C)C)C(=O)N1`, the EC90 (in general, the concentration at which the effect reaches the 90% level) in data set [1] is more than 10 µM.
The same measure, in the same setting: the same measure for `CC(C)C[C@H]1CN(C/C=C/c2ccccc2)[C@@H](CC(C)C)C(=O)N1`: 3.3 µM; for `CC(C)C[C@H]1CN(C(=O)C2CC2)[C@@H](CC(C)C)C(=O)N1`: more than 10 µM; for `CC(C)C[C@H]1CN(C(=O)c2cccc(-c3ccccc3)c2)[C@@H](CC(C)C)C(=O)N1`: more than 10 µM.
The same measure, in the same setting: the same measure for `CC(C)C[C@H]1CN(C(=O)/C=C/c2ccc([N+](=O)[O-])cc2)[C@@H](CC(C)C)C(=O)N1`: more than 10 µM; for `CC(C)C[C@H]1CN(C(=O)/C=C/c2ccc(Cl)cc2)[C@@H](CC(C)C)C(=O)N1`: 1.6 µM; for `CC(C)C[C@H]1CN(C(=O)/C=C/c2ccc(F)cc2)[C@@H](CC(C)C)C(=O)N1`: 1.5 µM.
The same measure, in the same setting: for `CC(C)C[C@H]1CN(C(=O)c2coc(-c3ccccc3)n2)[C@@H](CC(C)C)C(=O)N1` the value was more than 10 µM.
As to `Clc1ccc(Cn2c(/C=C/C3CCN(CC4CCCCC4)C3)nc3cc(Br)ccc32)cc1` (centres undefined), in data set [2], the EC50 (commonly the concentration that produces a half-maximal response) was determined as 1.8 µM.
On to `C[C@H]1CCCN1CCCOc1nn(Cc2ccc(Cl)cc2)c2ccc(-c3ccc(N4CCOCC4)nc3)cc12`, for which, in [2], the EC50 stood at 3.3 µM.
For the compound `CC[C@H](C)[C@H]1CN(C(=O)c2cc(-c3ccc(F)cc3)on2)[C@@H](CC(C)C)C(=O)N1`, the EC90 in [1] was more than 10 µM.
On to `CC(=O)c1ccc(NC(=O)c2cc3c(C)nn(-c4ccccc4)c3s2)cc1`, for which the EC50 in [3] came to 3200 nM. For the same compound, the affinity in data set [4], expressed as Kd, was 1000 nM.
The corresponding values for `CC(C)c1ccc(NC(=O)c2ccccc2)cc1` are 2800 nM and 6900 nM.
As for `O=C(c1ccccc1)N1CCC2(CCCN(c3ncc(-c4ccccc4)c(-c4ccc(Cl)cc4)n3)C2)CC1`, the EC50 in data set [5] is 200 nM; in data set [6] it was 800 nM; in data set [7], 9.5 µM; in data set [8], 7.6 µM; in [11], 2200 nM; in [12] it was 800 nM. Moreover, the EC50 came out at 20 nM in [1], 26.6 nM in [13] and 43.8 nM in data set [14]. In addition, in data set [9], the Kd (commonly the free concentration of one partner at which half of the binding sites on the other are occupied at equilibrium, for simple one-to-one binding) came out at 45.8 nM. Besides, the CC50 (commonly the concentration at which the toxic effect on the cells reaches its halfway point) in data set [10] was more than 43 µM.
As for `Clc1ccc(Cn2nc(OCCCN3CCCC3)c3ccccc32)cc1`, in data set [2], the EC50 is 3.7 µM.
In turn, `O=C(NCc1cccs1)c1nn2c(c1Cl)N[C@H](c1ccco1)C[C@@H]2C(F)(F)F` yielded a CC50 at 24 h in data set [15] of more than 100 µM. Also, the 50% effective concentration (EC50) is 620 nM in data set [16] and 630 nM in data set [17].
Take `COC(=O)c1c(NC(=O)Cc2cccs2)sc(C(=O)Nc2ccc(Cl)cc2)c1C`: in [3], the half-maximal effective concentration (EC50) was found to be 700 nM. This compound also showed a Kd in [4] of 300 nM.
`O=C(c1ccccc1)N1CCC2(CCCN(c3ncc(Br)c(-c4ccc(Cl)cc4)n3)C2)CC1`: the EC50 in data set [6] turned out to be 2200 nM; in data set [1] it was 172 nM. Also, the Kd in [9] was determined as 52.9 nM. Further, the CC50 in data set [10] worked out at 38.7 µM.
As to `Cc1nccn1-c1nc(-c2ccc(Cl)cc2)cc(C(F)(F)F)n1`, in [3], the EC50 worked out at 2200 nM. In data set [4], this compound registered a Kd of 2100 nM.
The corresponding values for `COc1ccc(Cl)cc1Nc1nc(-c2cccnc2)cs1` are 1500 nM and 1700 nM.
Turning to `O=C(NCc1cccs1)c1nn2c(c1Cl)NC(c1ccco1)CC2C(F)(F)F` (racemic), the CC50 at 24 h in data set [15] is more than 100 µM. Also, the 50% effective concentration (EC50) in [17] is 1780 nM.
Regarding `CC(C)CN(C)c1nc(N)c(C(=O)N=C(N)N)nc1Cl` [5-(N-METHYL-N-ISOBUTYL)AMILORIDE], the EC50 in [18] is 3.7 µM; in [19], 2500 nM.
In data set [4], `O=C(NCc1cccs1)c1cc2nc(-c3ccco3)cc(C(F)(F)Cl)n2n1` [ANGUIZOLE] registered a Kd of 662 nM. For the same compound, the EC50 worked out at 310 nM in data set [20], 630 nM in [21] and 560 nM in data set [23]. In data set [22], this compound had a CC50 at 48 h of more than 50 µM. Also, the CC75 in [24] is more than 100 µM.
In the case of `CC(C)(C)NC(=O)N[C@H](C(=O)N1C[C@H]2[C@@H]([C@H]1C(=O)NC(CC1CCC1)C(=O)C(N)=O)C2(C)C)C(C)(C)C` (some centres undefined) [BOCEPREVIR], the affinity in data set [25] corresponds to a Ki of 14 nM.
On to `Clc1ccc(Cn2c(CN3CCCC3)nc3ccccc32)cc1` [CLEMIZOLE], for which the results for the EC50 in data set [26] and in [2] were 8 µM and 23 µM, respectively. In data set [27], the half-maximal inhibitory concentration (IC50) (usually the midpoint of a concentration-inhibition curve) came to 24 nM.

For the origin of these results see ChEMBL document CHEMBL3751691, “A Journey around the Medicinal Chemistry of Hepatitis C Virus Inhibitors Targeting NS4B: From Target to Preclinical Drug Candidates” (J Med Chem, 2016).
